From patent publication US12504431B2, “Biomarkers for a therapy comprising a sorafenib compound” (Eisai R&D Management Co., Ltd., priority 2018, dated 2025)
Structures can show the parent of a compound that is named as a salt.

How the values were obtained:
unresectable HCC = assay: Phase 3 study E7080-G000-304: OS and PFS by baseline serum FGF21 level; format: in vivo, human; conditions: for MST for PFS, high FGF21 group / MST for PFS, low FGF21 group / HR for PFS, high vs low FGF21 group: PFS by RECIST 1.1 (IIR); for MST for PFS, high FGF21 group / median OS (MST), high FGF21 group: baseline serum FGF21 at or above third quartile cutoff (688 ng/L); for MST for PFS, low FGF21 group / median OS (MST), low FGF21 group: baseline serum FGF21 below third quartile cutoff (688 ng/L); for HR for PFS, high vs low FGF21 group / HR for OS, high vs low FGF21 group: univariate Cox regression, third quartile cutoff (688 ng/L); for difference of PFS (RECIST 1.1) between high and low baseline FGF21 groups: third quantile cutoff point
Experimental: E7080-G000-304 was a multicenter, randomized, open-label, noninferiority Phase 3 study to compare the efficacy and safety of lenvatinib versus sorafenib as a first-line systemic treatment in subjects with unresectable HCC. Subjects were randomly assigned in a 1:1 ratio to treatment with either lenvatinib 12 mg (baseline body weight [BW]≥60 kg) or 8 mg (baseline BW<60 kg) given once daily (QD) orally or sorafenib 400 mg given twice daily (BID) orally. Subjects were stratified by region, presence or absence of macroscopic portal vein invasion (MPVI) or extrahepatic spread (EHS) or both, Eastern Cooperative Oncology Group Performance Status (ECOG PS) 0 or 1, and BW (<60 kg or ≥60 kg). A total of 951 subjects (476 lenvatinib; 475 sorafenib) were enrolled and treated. Lenvatinib and sorafenib were self-administered by the subjects orally, at the same time each day (consistently either with or without food) in continuous 28-day cycles. Subjects received study treatment until disease progression, development of unacceptable toxicity, subject request, or withdrawal of consent.
Of the 954 subjects enrolled in the clinical study and assigned to receive lenvatinib or sorafenib, 407 subjects (42.7% of all ITT subjects, lenvatinib arm, n=279 and sorafenib arm, n=128) were included in blood serum biomarker assay.
Serum samples were collected at Day 1 of Cycle1 (pre-treatment). The serum levels of FGF21 at Day 1 of Cycle 1 (baseline level) in Samples from 279 subjects in the lenvatinib arm and 128 subjects in the sorafenib arm (total 407 subjects) were determined by enzyme-linked immunosorbent assay (ELISA). All biomarker data were transferred to study data tabulation model (SDTM) in accordance with the data transfer specification developed separately. Correlation between the serum baseline level of FGF21 and clinical outcome, such as progression free survival (PFS) was assessed. PFS was defined as the time from the date of randomization to the date of first documentation of disease progression or death.
All statistical analyses were performed by the Clinical Data Science department at Eisai Co., Ltd. (Tokyo, Japan) after the clinical study was completed and a snapshot of the database was obtained on 13 Nov. 2016. For the correlation analyses with PFS, data sets based on independent imaging review (IIR) by RECIST 1.1 were used. Statistical analyses were performed using SAS version 9.3.
For each baseline level of blood serum biomarker, correlation analysis with survival outcome measures (OS and PFS) was performed using univariate Cox regression for the lenvatinib arm and the sorafenib arm separately.
Subjects were divided into two high-low groups based on the baseline level of each blood serum biomarker. The cutoff point was third quartile. Association between the groups and survival outcome measures (OS and PFS) was explored using univariate Cox regression and the Log-rank test with the selected cutoff points.

[1] = system: Human FGF21-transfected HCC PLC/PRF/5 cells (FGF21-TF); assay: Antitumor activity in FGF21-TF tumor xenograft model in mice; format: in vivo, female nude mice; conditions: LEN 10 mg/kg and 30 mg/kg, SOR 30 mg/kg, orally once daily; FIG. 1
Text: (§1) Methods: Human FGF21 and Mock-transfected HCC PLC/PRF/5 cells (FGF21-TF and Mock-TF, respectively) were established by using piggy-back system. To evaluate antitumor activity against these tumors, 4.2×10^6 cells of FGF21-TF or 4.3×10^6 cells of Mock-TF were subcutaneously injected into female nude mice (Charles River, Japan) with matrigel (BD Biosciences). When tumor volumes reached approximately 200-300 mm3, mice were divided into each group according to their tumor volumes and either lenvatinib mesylate (abbreviated as LEN) (10 mg/kg and 30 mg/kg) or Sorafenib tosylate (abbreviated as SOR) (30 mg/kg) was orally administered once daily. Follow-up analysis of a HCC patient-derived xenograft (PDX)-derived tumor (LI0334 HCC PDX tumor model treated with 3 mM HCl (vehicle for lenvatinib)) assessed FGF21 expression levels by immunohistochemistry. Three μm thick sections of paraffin-embedded tumor samples were de-paraffinized and hydrated. Antigen retrieval was performed by incubation of the samples in Dako REAL Target Retrieval sol. (pH6.0) (Dako) for 30 minutes. Endogenous hydrogen peroxidase activity was blocked by incubating the slides for 10 min with 3% hydrogen peroxide. The slides were incubated overnight with primary antibody, human rabbit anti-human FGF21 (ab64857. Abcam) at 1:100 in 1% BSA/PBS at 4° C. […]

[2] = system: Mock-transfected HCC PLC/PRF/5 cells (Mock-TF); assay: Antitumor activity in Mock-TF tumor xenograft model in mice; format: in vivo, female nude mice; conditions: LEN 10 mg/kg and 30 mg/kg, SOR 30 mg/kg, orally once daily; FIG. 1
Text: as §1

[3] = Relative body weight changes in mice with FGF21-TF and Mock-TF tumors; format: in vivo, female nude mice; conditions: LEN 10 mg/kg and 30 mg/kg, SOR 30 mg/kg, orally once daily; FIG. 2
Text: as §1

LI0334 HCC PDX tumor = conditions: PDX tumor highly expressing FGF21; reported in Matsuki et al., AACR 2017; cited from earlier work

SMILES | MST for PFS, high FGF21 group (unresectable HCC) | MST for PFS, low FGF21 group (unresectable HCC) | HR for PFS, high vs low FGF21 group (unresectable HCC) | median OS (MST), high FGF21 group (unresectable HCC) | median OS (MST), low FGF21 group (unresectable HCC) | difference of PFS (RECIST 1.1) between high and low baseline FGF21 groups (unresectable HCC) | HR for OS, high vs low FGF21 group (unresectable HCC) | antitumor activity (tumor volume changes) in the FGF21-TF model [1] | antitumor activity (tumor volume changes) in the Mock-TF model [2] | body weight losses associated with tumor presence compared to non-treatment [3] | inhibition of the LI0334 HCC PDX tumor model (LI0334 HCC PDX tumor)
COc1cc2nccc(Oc3ccc(NC(=O)NC4CC4)c(Cl)c3)c2cc1C(N)=O [Lenvatinib, 4-(3-chloro-4-(cyclopropylaminocarbonyl)aminophenoxy)-7-methoxy-6-quinolinecarboxamide] | 7.5 | 8.0 | 1.184 | 10.9 months | 18.0 months | no clear difference of PFS | 1.745 | – | – | – | –
CNC(=O)c1cc(Oc2ccc(NC(=O)Nc3ccc(Cl)c(C(F)(F)F)c3)cc2)ccn1 [SOR, Sorafenib tosylate] | – | – | – | – | – | – | – | only LEN showed activity | showed antitumor activity | Neither treatment exacerbated body weight losses | –
COc1cc2nccc(Oc3ccc(NC(=O)NC4CC4)c(Cl)c3)c2cc1C(N)=O [LEN, lenvatinib mesylate] | – | – | – | – | – | – | – | showed activity | showed antitumor activity | Neither treatment exacerbated body weight losses | inhibited by LEN
CNC(=O)c1cc(Oc2ccc(NC(=O)Nc3ccc(Cl)c(C(F)(F)F)c3)cc2)ccn1 [Sorafenib, 4-[4-[[4-chloro-3-(trifluoromethyl)phenyl]carbamoylamino]phenoxy]-N-methylpyridine-2-carboxamide] | 2.4 | 5.5 | 1.783 | 6.8 months | 17.8 months | short median PFS (RECIST 1.1) for high group than that of low group | 3.341 | – | – | – | –
